# Laboratory results from patent US20240299492A1, “COMBINATION THERAPIES WITH SIRP ALPHA-BASED CHIMERIC PROTEINS” (Shattuck Labs, Inc., priority 2021, published 2024).
# “Also recorded” adds a separate entry of the source.
# Columns and labels:
# [1] = tested on: p53; test: Surface expression of p53 in Kasumi-1 cells (flow cytometry); assay type: cell-based, human; details: 15 μM or 50 μM APR-246, overnight; FIG. 12A
# Experimental: (§1) Briefly, the Kasumi-1 human acute myelocytic leukemia (AML) cells were incubated overnight in the presence of vehicle only control, 15 μM APR-246, or 50 μM APR-246. The following day, the Kasumi-1 cells were analyzed by flow cytometry for surface expression of p53 and calreticulin (CRT).
# [2] = tested on: calreticulin (CRT); test: Surface expression of calreticulin in Kasumi-1 cells (flow cytometry); assay type: cell-based, human; details: 15 μM or 50 μM APR-246, overnight; FIG. 12B
# Experimental: as §1
# [3] = tested on: K652 human chronic myelogenous leukemia (CML) cells; test: Phagocytosis of K652 cells by human macrophages (flow cytometry): azacitidine and/or SIRPα-Fc-CD40L; assay type: cell-based; details: 0.1 μM azacitidine overnight and/or SIRPα-Fc-CD40L for 4 hours; combination p<0.001 vs control; FIG. 2A
# Experimental: (§2) Briefly, the K652 human chronic myelogenous leukemia (CML) cells were labeled with a green fluorescent tracker and treated with vehicle alone control or 0.1 μM azacitidine overnight. The following day, the tumor cells were washed in PBS and then co-cultured with human macrophages with or without the SIRPα-Fc-CD40L chimeric protein for 4 hours at 37° C. in the presence of 5% CO2. After this incubation, the cells were harvested and treated with an anti-CD11b antibody (a macrophage marker) and were analyzed using flow cytometry. Positive phagocytosis was determined by the overlap in signals of tumor (the green fluorescent tracker) and macrophage (anti-CD11b antibody staining). A phagocytosis index was calculated by setting the maximum phagocytosis value to 1, and then normalizing all other replicates accordingly. The phagocytosis index was plotted for the indicated treatments.
# [4] = tested on: Kasumi-3 human acute myelocytic leukemia (AML) cells; test: Phagocytosis of Kasumi-3 cells by human macrophages (flow cytometry): azacitidine and/or SIRPα-Fc-CD40L; assay type: cell-based; details: 0.1 pM azacitidine overnight and/or SIRPα-Fc-CD40L for 4 hours; combination p<0.0001 vs control; FIG. 2B
# Experimental: as §2, with “In another experiment,” for “Briefly,”, “Kasumi-3” for “K652”, “acute myelocytic” for “chronic myelogenous”, “(AML)” for “(CML)”, “[…]” for “μM”
# [5] = tested on: A20 lymphoma cells; test: In vivo anti-tumor efficacy, A20 lymphoma cell allograft mouse model; set-up: species or system BALB/C mice; details: day 12; 1 mg/kg azacitidine (days 0-4), 4 mg/kg pevonedistat (MLN4924) (days 0-3), 200 μg SIRPα-Fc-CD40L (mSIRPα-Fc-CD40L; days 0, 3, 6), intraperitoneal; FIG. 13C
# Experimental: The efficacy of the SIRPα-Fc-CD40L chimeric protein was evaluated in combination with an immune checkpoint inhibitor. Towards that, the ability of an anti-PD-L1 antibody and chimeric proteins to target and reduce tumor volume in vivo was determined. Briefly, BALB/C mice were inoculated with 1×10^6 A20 lymphoma cells. When tumor volumes were approximately 75 to 80 mm^3 (day 0), the mice were randomly distributed in the following treatment groups: (1) vehicle only control, (2) 200 μg of the mouse SIRPα-Fc-CD40L chimeric protein alone, (3) 100 μg an anti-PD-L1 antibody (clone 10F.9G2), and (4) a combination 200 μg of the SIRPα-Fc-CD40L chimeric protein and 100 μg the anti-PD-L1 antibody. […] Tumors were measured with electronic calipers on day 12 and plotted using the GraphPad Prism software. […]
# The efficacy of the SIRPα-Fc-CD40L chimeric protein was evaluated in combination with an antimetabolite/DNA synthesis inhibitor. Towards that, the ability of cytarabine and the chimeric protein to target and reduce tumor volume in vivo was determined. […] Tumors were measured with electronic calipers on day 12 and plotted using the GraphPad Prism software. […]
# The efficacy of the SIRPα-Fc-CD40L chimeric protein was evaluated in combination with a hypomethylating agent/an epigenetic regulator and/or a protein neddylation inhibitor. […]
# [6] = tested on: CD47; test: Surface expression of CD47 in K652 cells (flow cytometry); assay type: cell-based, human; details: 1 μM, overnight; FIG. 11A
# Experimental: (§3) Briefly, the K652 human chronic myelogenous leukemia cells were incubated overnight in the presence of vehicle only control, 1 μM azacitidine or 1 μM pevonedistat. The following day, the K652 cells were analyzed by flow cytometry for surface expression of CD47 or calreticulin (CRT).
# [7] = tested on: calreticulin (CRT); test: Surface expression of calreticulin in K652 cells (flow cytometry); assay type: cell-based, human; details: 1 μM, overnight; FIG. 11C
# Experimental: as §3
# [8] = tested on: annexin V; test: Surface expression of annexin V in Kasumi-3 cells (flow cytometry); assay type: cell-based, human; details: increasing amounts, overnight; FIG. 14A
# Experimental: (§4) The surface expression of apoptosis marker […] or the […] protein calreticulin (CRT) was studied. Briefly, the Kasumi-3 cells were incubated overnight in the presence of vehicle only control, increasing amounts of azacitidine or venetoclax, or a combination of azacitidine and venetoclax. The following day, the cells were analyzed by flow cytometry for surface expression of annexin or calreticulin (CRT). […] In addition, except for very high concentrations of azacitidine and venetoclax (100 μM each), the apoptosis induced by azacitidine and venetoclax was not additive compared to corresponding single treatments (FIG. 14A). […] In addition, except for very high concentrations of azacitidine and venetoclax (100 μM each), the apoptosis induced by azacitidine and venetoclax was not additive compared to corresponding single treatments (FIG. 14B).
# [9] = tested on: calreticulin (CRT); test: Surface expression of calreticulin in Kasumi-3 cells (flow cytometry), Example 19; assay type: cell-based, human; details: increasing amounts, overnight; FIG. 14B
# Experimental: as §4
# [10] = tested on: Kasumi-3 AML cells; test: Phagocytosis of Kasumi-3 AML cells by human macrophages (flow cytometry): azacitidine and/or venetoclax and/or SIRPα-Fc-CD40L; assay type: cell-based; details: 50 μg/ml SIRPα-Fc-CD40L (p<0.05), 10 μM azacitidine (p<0.0001), 1 μM venetoclax (p<0.05); each combination p<0.0001; 4 hours; FIG. 14C
# Experimental: Briefly, the Kasumi-3 AML cells were labeled with a green fluorescent tracker and co-cultured with human macrophages and treated with (1) vehicle alone control, (2) 50 μg/ml of the SIRPα-Fc-CD40L chimeric protein, (3) 10 μM azacitidine, (4) 50 μg/ml of the SIRPα-Fc-CD40L chimeric protein+10 μM azacitidine, (5) 1 μM venetoclax, (6) 50 μg/ml of the SIRPα-Fc-CD40L chimeric protein+1 μM venetoclax, or (7) 50 μg/ml of the SIRPα-Fc-CD40L chimeric protein+1 μM venetoclax+10 μM azacitidine. The cells were incubated at 37° C. in the presence of 5% CO2 for 4 hours. After this incubation, the cells were harvested and treated with an anti-CD11b antibody (a macrophage marker) and were analyzed using flow cytometry. Positive phagocytosis was determined by the overlap in signals of tumor (the green fluorescent tracker) and macrophage (anti-CD11b antibody staining). A phagocytosis index was calculated by setting the maximum phagocytosis value to 1, and then normalizing all other replicates accordingly. The phagocytosis index was plotted for the indicated treatments.
# [11] = tested on: CD47; test: Surface expression of CD47 in Kasumi-3 cells (flow cytometry); assay type: cell-based, human; details: 1 μM, overnight; FIG. 11B
# Experimental: (§5) In another experiment, the Kasumi-3 human acute myelocytic leukemia (AML) cells were incubated overnight in the presence of vehicle only control, 1 μM pevonedistat (MLN4924) or […]. The following day, the Kasumi-3 cells were analyzed by flow cytometry for surface expression of CD47 or calreticulin (CRT).
# [12] = tested on: calreticulin (CRT); test: Surface expression of calreticulin in Kasumi-3 cells (flow cytometry), Example 17; assay type: cell-based, human; details: 1 μM, overnight; FIG. 11D
# Experimental: as §5
structure (smiles),measurement,setting,value
COCC1(CO)C(=O)C2CCN1CC2 (stereo not drawn) [APR-246],expression of p53 compared to the vehicle only-treated Kasumi-1 cells,[1],dose-dependent induction
same,expression of calreticulin compared to the vehicle only-treated Kasumi-1 cells,[2],induced the expression
Nc1ncn([C@@H]2O[C@H](CO)[C@@H](O)[C@H]2O)c(=O)n1 [azacitidine],level of phagocytosis (phagocytosis index) compared to the control K652 cells,[3],increased level of phagocytosis
same,level of phagocytosis (phagocytosis index) compared to the control Kasumi-3 cells,[4],slight increase in the level of phagocytosis
same,tumor size,[5],reduction in tumor size
same,surface expression of CD47 compared to the vehicle only-treated K652 cells,[6],induced the expression
same,"surface expression of calreticulin, a pro-phagocytic marker, compared to the vehicle only-treated K652 cells",[7],induced the expression
same,expression of annexin V (apoptosis marker) compared to the vehicle only-treated Kasumi-3 cells,[8],induced the expression of annexin V in Kasumi-3 cells in a dose-dependent manner; also recorded: increased the expression
same,expression of calreticulin compared to the vehicle only-treated Kasumi-3 cells,[9],induced the expression of calreticulin in Kasumi-3 cells in a dose-dependent manner; also recorded: increased the expression
same,level of phagocytosis (phagocytosis index) compared to the vehicle only-treated Kasumi-3 cells,[10],increased level of phagocytosis
"NS(=O)(=O)OC[C@@H]1C[C@@H](n2ccc3c(N[C@H]4CCc5ccccc54)ncnc32)C[C@@H]1O [pevonedistat (MLN4924), pevonedistat]",tumor size,[5],reduction in tumor size
same,surface expression of CD47 compared to the vehicle only-treated K652 cells,[6],induced the expression
same,"surface expression of calreticulin, a pro-phagocytic marker, compared to the vehicle only-treated K652 cells",[7],induced the expression
same,surface expression of CD47 compared to the vehicle only-treated Kasumi-3 cells,[11],induced the expression
same,"surface expression of calreticulin, a pro-phagocytic marker, compared to the vehicle only-treated Kasumi-3 cells",[12],induced the expression
